Reference: patent US20210292807A1, “METHOD FOR TESTING ANTIMICROBIAL SUSCEPTIBILITY” (priority 2017, published 2021)
Several values for one entry are separate records, joined by “and”; a condition that tells them apart may be missing. Equal values may be shown once. Read-outs that look alike come from different tables or passages of the source.

Test system: Klebsiella isolates
Assay: Acoustic flow cytometry-assisted susceptibility test (FAST), MICFAST and S/NS, Klebsiella isolates
Type: cell-based, Klebsiella pneumoniae, Klebsiella oxytoca
Method: A 1 mL aliquot of bacterial suspension was centrifuged, washed and resuspended in 1 mL filtered Hank's Buffered Salt Solution (HBSS; comprising about 0.137 M NaCl, about 5.4 mM KCl, about 0.25 mM Na2HPO4, about 0.1 g Glucose, about 0.44 mM KH2PO4, 1.3 mM CaCl2), 1.0 mM MgSO4, about 1.3 mM CaCl2), 1.0 mM MgSO4, and about 4.2 mM NaHCO3) and diluted in series (e.g., in a 1:10 serial dilution) to a final 1:1000 dilution.
One μL (microliter) of SYTO 9 stain (e.g., ThermoFisher Scientific) working stock solution was added to the final dilution at a final concentration of 5 μM and incubated for 5 minutes before counting bacterial events by acoustic flow cytometer (AFC) (Attune, ThermoFisher, Eugene, Oreg., USA), which was used to prepare a standardised inoculum density for susceptibility testing.
An aliquot of bacterial suspension was added to 50 mL centrifuge tubes (Corning, N.Y.) containing 9 mL of pre-warmed (37° C.) filtered MHB to produce a final density of 5×10^5-1×10^6 bacteria per mL. This suspension was incubated at 37° C. with shaking at 100 RPM for 30 minutes to obtain an actively dividing culture. An aliquot of antibiotic working solution from the previously described dilution series (appropriate to the concentration tested) was then added to each tube before a further 30-minute incubation with shaking, during which time a microbroth dilution (MBD) plate was prepared for overnight incubation at 37° C. as previously described in Clinical and Laboratory Standards Institute (2015) Performance Standards for Antimicrobial Susceptibility Testing: Informational Supplement. CLSI document M100-S25. Clinical and Laboratory Standards Institute, 950, West Valley Road, Suite 2500, Wayne, Pa., 19087, USA.
One millilitre of bacterial suspension from each antibiotic concentration was harvested by centrifugation at 7800×g for 5 minutes, washed and diluted 1:10 in filtered HBSS in a light-impermeable microcentrifuge tube, then stained with SYTO 9 stain at a final concentration of 5 μM, and incubated for 5 min before AFC sampling. Hoechst 33342 dye (NucBlue, Thermo Fisher Scientific, Eugene, Oreg., USA) and a SYTO 9/propidium iodide (PI) combination (Thermo Fisher Scientific) were used in a series of replicate experiments.
The acoustic flow cytometer employed was Attune acoustic flow cytometer (Thermo Fisher Scientific), having installed therein a 488 nm blue laser with a 530/30 nm filter on the photomultiplier tube for measuring fluorescence of cells assayed. Alternatively, the Attune NxT acoustic flow cytometer (Thermo Fisher Scientific) can be employed. AFC was calibrated at the beginning of each acquisition session using fluorescently labelled size calibration beads, in accordance with the manufacturer's instructions (ThermoFisher Scientific). The AFC settings were as follows: Forward Scatter (FSC) voltage 3100, FSC threshold 4×1000 AND, blue laser 1 (BL1—530/30 nm) voltage 1900, BL1 threshold 1×1000 AND, high sensitivity, flow rate 25 μL/minute, and an acquisition volume of 125 μL. Acquisition was halted after either collection of 20,000 events across all gates, or after 3 minutes, with each sample acquired in technical triplicate.
Collected data was exported in the FCS 3.0 file format and analysed in Flow v10.0 (FlowJo LLC, Ashland, Oreg., USA) by a single user, blinded to the MIC results by BMD (MICBMD).
Subsequent to quantitative MICFAST determination, the acoustic flow cytometer data were re-analysed in silico to produce a limited sub-set for qualitative susceptibility determination. The six antibiotic dilutions (0 mg/L, 0.25 mg/L, 1 mg/L, 2 mg/L, 4 mg/L and 16 mg/L) most relevant to qualitative susceptibility assessment were used. In silico analysis was restricted to the first technical triplicate of each recorded sample. Gating strategies remained consistent, with the addition of a gate restricting analysis to only those events recorded in the first 60 seconds of acquisition.

[1] = K. pneumoniae isolate 18397, biological replicates
[2] = K. pneumoniae isolate 43292, biological replicates
[3] = K. pneumoniae isolate 43358, biological replicates
[4] = K. pneumoniae isolate 44271, biological replicates
[5] = K. pneumoniae isolate ATCC 700603, biological replicates
[6] = K. pneumoniae isolate ATCC BAA1705, biological replicates
[7] = K. pneumoniae isolate K1, biological replicates
[8] = K. pneumoniae isolate K14, biological replicates
[9] = K. pneumoniae isolate KS11, biological replicates

In the case of `C[C@@H](O)[C@H]1C(=O)N2C(C(=O)O)=C(S[C@@H]3CN[C@H](C(=O)N(C)C)C3)[C@H](C)[C@H]12` [meropenem], the MICFAST (K. pneumoniae ATCC 700603 (carbapenem susceptible control), limited clinical screen concentrations) is reported as at most 0.25, the MICFAST (K. pneumoniae ATCC BAA1705 (carbapenem resistant control), limited clinical screen concentrations) is reported as over 16 and the “FAST S/NS” value [1] is reported as “S (S: MIC ≤2 mg/L)”. The MICFAST [1] was at most 0.25 mg/L, the “FAST S/NS” value [2] was “S (S: MIC ≤2 mg/L)” and the MICFAST [2] was at most 0.25 mg/L. The “FAST S/NS” value [3] was “S (S: MIC ≤2 mg/L)”, the MICFAST [3] was at most 0.25 mg/L and the “FAST S/NS” value [4] was “S (S: MIC ≤2 mg/L)”. The MICFAST [4] was 0.5 mg/L, the “FAST S/NS” value [5] was “S (S: MIC ≤2 mg/L)” and the MICFAST [5] was at most 0.25 mg/L. The “FAST S/NS” value [6] was “NS (NS: MIC >2 mg/L)”, the MICFAST [6] was 8 mg/L and the “FAST S/NS” value [7] was “NS (NS: MIC >2 mg/L)”. For the same compound, the MICFAST [7] was 64 mg/L (2×) and 32 mg/L, the “FAST S/NS” value [8] was “NS (NS: MIC >2 mg/L)” and the MICFAST [8] was 256 mg/L. The MICFAST (K. pneumoniae isolate K16 (IMP-4), rough colony variant) was 64 mg/L, the MICFAST (K. pneumoniae isolate K16 (IMP-4), smooth colony variant) was 2 mg/L and the MIC (K. pneumoniae isolate K16, subculture of Day 1 meropenem-exposed culture, read-out: MIC by FAST on Day 2) was 4 µg/mL. The MICFAST (K. pneumoniae isolate KS1, biological replicates) was 4 mg/L and 1 mg/L and 2 mg/L, the “FAST S/NS” value [9] was “S (S: MIC ≤2 mg/L)” and the MICFAST [9] was 1 mg/L (2×) and 2 mg/L. For the same compound, the MIC (K. pneumoniae susceptible type strain ATCC 700603, read-out: isolate's MIC (new contouring focus formed, FIG. 3A)) was 0.25 µg/mL, the “susceptibility-associated signature by AFC bi-axial plot (FIG. 3B)” value (highly resistant clinical K. pneumoniae strain K8, clinically relevant meropenem concentrations) was “absence of susceptibility-associated signature” and the “FAST S/NS” value (isolate 194, Sweden, VIM) was “NS (NS = MIC >2 mg/L)”. For the same compound, the MICFAST (isolate 194, Sweden, VIM) was 16 mg/L, the “FAST S/NS” value (isolate 374, Sweden, VIM) was “NS (NS = MIC >2 mg/L)” and the MICFAST (isolate 374, Sweden, VIM) was 32 mg/L. The “FAST S/NS” value (isolate 3354, Australia) was “S (S = MIC ≤2 mg/L)”, the MICFAST (isolate 3354, Australia) was 0.5 mg/L and the “FAST S/NS” value (isolate 10924, Sweden, KPC) was “S (S = MIC ≤2 mg/L)”. For the same compound, the MICFAST (isolate 10924, Sweden, KPC) was 0.5 mg/L, the “FAST S/NS” value (isolate 18397, Australia) was “S (S = MIC ≤2 mg/L)” and the MICFAST (isolate 18397, Australia) was at most 0.25 mg/L. For the same compound, the “FAST S/NS” value (isolate 43288, Australia) was “S (S = MIC ≤2 mg/L)”, the MICFAST (isolate 43288, Australia) was at most 0.25 mg/L and the “FAST S/NS” value (isolate 43292, Australia) was “S (S = MIC ≤2 mg/L)”. The MICFAST (isolate 43292, Australia) was at most 0.25 mg/L, the “FAST S/NS” value (isolate 43358, Australia) was “S (S = MIC ≤2 mg/L)” and the MICFAST (isolate 43358, Australia) was at most 0.25 mg/L. The “FAST S/NS” value (isolate 43854, Australia) was “S (S = MIC ≤2 mg/L)”, the MICFAST (isolate 43854, Australia) was at most 0.25 mg/L and the “FAST S/NS” value (isolate 44271, Australia) was “S (S = MIC ≤2 mg/L)”. For the same compound, the MICFAST (isolate 44271, Australia) was 0.5 mg/L, the “FAST S/NS” value (isolate 51575, Sweden, ESBL) was “S (S = MIC ≤2 mg/L)” and the MICFAST (isolate 51575, Sweden, ESBL) was at most 0.25 mg/L. For the same compound, the “FAST S/NS” value (isolate 70708, Sweden, KPC) was “NS (NS = MIC >2 mg/L)”, the MICFAST (isolate 70708, Sweden, KPC) was 32 mg/L and the “FAST S/NS” value (isolate 71076, Sweden, KPC) was “NS (NS = MIC >2 mg/L)”. The MICFAST (isolate 71076, Sweden, KPC) was 32 mg/L, the “FAST S/NS” value (isolate 200822, Sweden, KPC) was “NS (NS = MIC >2 mg/L)” and the MICFAST (isolate 200822, Sweden, KPC) was 8 mg/L. For the same compound, the “FAST S/NS” value (isolate 270902, England) was “S (S = MIC ≤2 mg/L)”, the MICFAST (isolate 270902, England) was at most 0.25 mg/L and the “FAST S/NS” value (isolate 500638, Sweden, pAmpC) was “S (S = MIC ≤2 mg/L)”. The MICFAST (isolate 500638, Sweden, pAmpC) was 2 mg/L, the “FAST S/NS” value (isolate 515870, Sweden, ESBL) was “S (S = MIC ≤2 mg/L)” and the MICFAST (isolate 515870, Sweden, ESBL) was at most 0.25 mg/L.
